# Test results published in patent publication US9969694B2, “N-(arylalkyl)-N′-pyrazolyl-urea, thiourea, guanidine and cyanoguanidine compounds as TrkA kinase inhibitors” (Array BioPharma Inc., priority 2012, dated 2018).
# Experiments:
# Assay in all cases: Off-Target Kinase Profiling
# Assay type in all cases: biochemical
# Conditions in all cases: 10 μM; ATP near Km
# TLK2 = biological target: T1, TLK2 (Homo sapiens, UniProt Q86UE8)
# T1 construct: purchased Millipore, Inc. (KinaseProfiler service)
# Experimental: (§1) Representative compounds of the invention (Examples 33 and 10) were tested for off-target kinase activity at a concentration of 10 μM by Millipore, Inc. in their KinaseProfiler™ service against all the kinases available in their full kinase panel. Compounds were run in duplicate at a concentration of ATP near the Km for each individual kinase according to Millipore's specifications. The results are shown in Table B. Data are reported as percent of control (POC) and are the average of the two replicates.
# DCAMKL2 = biological target: T2, DCAMKL2 (Homo sapiens, UniProt Q8N568)
# T2 construct: purchased Millipore, Inc. (KinaseProfiler service)
# Experimental: as §1
# Plk1 = biological target: T3, Plk1 (Homo sapiens, UniProt P53350)
# T3 construct: purchased Millipore, Inc. (KinaseProfiler service)
# Experimental: as §1
# TEC Activated = biological target: T4, TEC Activated (Homo sapiens, UniProt P42680)
# T4 construct: purchased Millipore, Inc. (KinaseProfiler service)
# Experimental: as §1
# Ret = biological target: T5, Ret (Homo sapiens, UniProt P07949)
# T5 construct: purchased Millipore, Inc. (KinaseProfiler service)
# Experimental: as §1
# TAO2 = biological target: T6, TAO2 (Homo sapiens, UniProt Q9UL54)
# T6 construct: purchased Millipore, Inc. (KinaseProfiler service)
# Experimental: as §1
# FGFR4 = biological target: T7, FGFR4 (Homo sapiens, UniProt P22455)
# T7 construct: purchased Millipore, Inc. (KinaseProfiler service)
# Experimental: as §1
# AKT2 = biological target: T8, AKT2 (Homo sapiens, UniProt P31751)
# T8 construct: purchased Millipore (KinaseProfiler service)
# Experimental: as §1
# Axl = biological target: T9, Axl (Homo sapiens, UniProt P30530)
# T9 construct: purchased Millipore (KinaseProfiler service)
# Experimental: as §1
# EphA7 = biological target: T10, EphA7 (Homo sapiens, UniProt Q15375)
# T10 construct: purchased Millipore, Inc. (KinaseProfiler service)
# Experimental: as §1
# EphB3 = biological target: T11, EphB3 (Homo sapiens, UniProt P54753)
# T11 construct: purchased Millipore, Inc. (KinaseProfiler service)
# Experimental: as §1
# PKCgamma = biological target: T12, PKCgamma (Homo sapiens, UniProt P05129)
# T12 construct: purchased Millipore, Inc. (KinaseProfiler service)
# Experimental: as §1
# CK2alpha2 = biological target: T13, CK2alpha2 (Homo sapiens, UniProt P19784)
# T13 construct: purchased Millipore, Inc. (KinaseProfiler service)
# Experimental: as §1
# MARK2 = biological target: T14, MARK2 (Homo sapiens, UniProt Q7KZI7)
# T14 construct: purchased Millipore, Inc. (KinaseProfiler service)
# Experimental: as §1
# Lyn = biological target: T15, Lyn (Homo sapiens, UniProt P07948)
# T15 construct: purchased Millipore, Inc. (KinaseProfiler service)
# Experimental: as §1
# PTK6 = biological target: T16, PTK6 (Homo sapiens, UniProt Q13882)
# T16 construct: purchased Millipore, Inc. (KinaseProfiler service)
# Experimental: as §1
# Fes = biological target: T17, Fes (Homo sapiens, UniProt P07332)
# T17 construct: purchased Millipore, Inc. (KinaseProfiler service)
# Experimental: as §1
# PKCdelta = biological target: T18, PKCdelta (Homo sapiens, UniProt Q05655)
# T18 construct: purchased Millipore, Inc. (KinaseProfiler service)
# Experimental: as §1
# ITK = biological target: T19, ITK (Homo sapiens, UniProt Q08881)
# T19 construct: purchased Millipore, Inc. (KinaseProfiler service)
# Experimental: as §1
# KDR = biological target: T20, KDR (Homo sapiens, UniProt P35968)
# T20 construct: purchased Millipore, Inc. (KinaseProfiler service)
# Experimental: as §1
# MAPKAP-K5 = biological target: T21, MAPKAP-K5 (Homo sapiens, UniProt Q8IW41)
# T21 construct: purchased Millipore, Inc. (KinaseProfiler service)
# Experimental: as §1
# eEF-2K = biological target: T22, eEF-2K (Homo sapiens, UniProt O00418)
# T22 construct: purchased Millipore, Inc. (KinaseProfiler service)
# Experimental: as §1
# AURKA = biological target: T23, AURKA (Homo sapiens, UniProt O14965)
# T23 construct: purchased Millipore (KinaseProfiler service)
# Experimental: as §1
# MKK6 = biological target: T24, MKK6 (Homo sapiens, UniProt P52564)
# T24 construct: purchased Millipore, Inc. (KinaseProfiler service)
# Experimental: as §1
# CAMK2g = biological target: T25, CAMK2g (Homo sapiens, UniProt Q13555)
# T25 construct: purchased Millipore (KinaseProfiler service)
# Experimental: as §1
# CLK3 = biological target: T26, CLK3 (Homo sapiens, UniProt P49761)
# T26 construct: purchased Millipore, Inc. (KinaseProfiler service)
# Experimental: as §1
# PAK4 = biological target: T27, PAK4 (Homo sapiens, UniProt O96013)
# T27 construct: purchased Millipore, Inc. (KinaseProfiler service)
# Experimental: as §1
# PKCiota = biological target: T28, PKCiota (Homo sapiens, UniProt P41743)
# T28 construct: purchased Millipore, Inc. (KinaseProfiler service)
# Experimental: as §1
# Rse = biological target: T29, Rse (Homo sapiens, UniProt Q06418)
# T29 construct: purchased Millipore, Inc. (KinaseProfiler service)
# Experimental: as §1
# ROCK-I = biological target: T30, ROCK-I (Homo sapiens, UniProt Q13464)
# T30 construct: purchased Millipore, Inc. (KinaseProfiler service)
# Experimental: as §1
# MKK4_m = biological target: T31, MKK4_m (Mus musculus, UniProt P47809)
# T31 construct: purchased Millipore, Inc. (KinaseProfiler service)
# Experimental: as §1
# WNK2 = biological target: T32, WNK2 (Homo sapiens, UniProt Q9Y3S1)
# T32 construct: purchased Millipore, Inc. (KinaseProfiler service)
# Experimental: as §1
# DAPK2 = biological target: T33, DAPK2 (Homo sapiens, UniProt Q9UIK4)
# T33 construct: purchased Millipore, Inc. (KinaseProfiler service)
# Experimental: as §1
# CLK2 = biological target: T34, CLK2 (Homo sapiens, UniProt P49760)
# T34 construct: purchased Millipore, Inc. (KinaseProfiler service)
# Experimental: as §1
# KIT = biological target: T35, KIT (Homo sapiens, UniProt P10721)
# T35 construct: purchased Millipore, Inc. (KinaseProfiler service)
# Experimental: as §1
# EphA1 = biological target: T36, EphA1 (Homo sapiens, UniProt P21709)
# T36 construct: purchased Millipore, Inc. (KinaseProfiler service)
# Experimental: as §1
# AMPK(A1/B1/G1) = biological target: T37, AMPK(A1/B1/G1) (Homo sapiens, UniProt Q13131)
# T37 construct: purchased Millipore (KinaseProfiler service)
# Experimental: as §1
# CHK2 = biological target: T38, CHK2 (Homo sapiens, UniProt O96017)
# T38 construct: purchased Millipore, Inc. (KinaseProfiler service)
# Experimental: as §1
# MST1 = biological target: T39, MST1 (Homo sapiens, UniProt Q13043)
# T39 construct: purchased Millipore, Inc. (KinaseProfiler service)
# Experimental: as §1
# Fms = biological target: T40, Fms (Homo sapiens, UniProt P07333)
# T40 construct: purchased Millipore, Inc. (KinaseProfiler service)
# Experimental: as §1
# TrkB = biological target: T41, TrkB (Homo sapiens, UniProt Q16620)
# T41 construct: purchased Millipore, Inc. (KinaseProfiler service)
# Experimental: as §1
# T35 sequence (P10721 26-976): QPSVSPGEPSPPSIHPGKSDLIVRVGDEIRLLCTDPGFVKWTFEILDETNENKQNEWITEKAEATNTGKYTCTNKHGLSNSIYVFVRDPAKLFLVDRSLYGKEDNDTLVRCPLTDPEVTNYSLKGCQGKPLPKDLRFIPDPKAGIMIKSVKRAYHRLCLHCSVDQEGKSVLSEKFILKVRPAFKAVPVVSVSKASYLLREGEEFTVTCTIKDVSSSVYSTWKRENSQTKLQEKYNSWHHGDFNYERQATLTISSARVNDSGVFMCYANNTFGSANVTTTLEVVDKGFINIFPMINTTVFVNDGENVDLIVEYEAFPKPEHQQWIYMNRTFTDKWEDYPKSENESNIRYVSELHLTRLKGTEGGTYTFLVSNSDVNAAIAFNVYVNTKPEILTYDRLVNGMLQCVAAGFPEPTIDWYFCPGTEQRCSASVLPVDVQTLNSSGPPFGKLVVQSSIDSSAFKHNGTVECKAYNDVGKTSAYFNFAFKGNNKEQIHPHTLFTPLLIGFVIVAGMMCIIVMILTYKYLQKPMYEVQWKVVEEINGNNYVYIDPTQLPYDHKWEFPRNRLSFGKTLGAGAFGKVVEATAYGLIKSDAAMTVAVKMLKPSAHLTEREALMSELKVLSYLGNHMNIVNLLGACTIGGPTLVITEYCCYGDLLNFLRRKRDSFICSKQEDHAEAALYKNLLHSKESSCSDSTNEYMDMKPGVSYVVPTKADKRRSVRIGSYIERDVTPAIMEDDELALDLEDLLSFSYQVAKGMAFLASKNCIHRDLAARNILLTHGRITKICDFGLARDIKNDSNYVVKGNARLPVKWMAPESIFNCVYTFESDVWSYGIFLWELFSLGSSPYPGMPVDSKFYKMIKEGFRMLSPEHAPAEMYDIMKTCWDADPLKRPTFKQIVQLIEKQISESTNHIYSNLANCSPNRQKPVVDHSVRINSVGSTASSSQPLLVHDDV
# T8 sequence (P31751 whole entry): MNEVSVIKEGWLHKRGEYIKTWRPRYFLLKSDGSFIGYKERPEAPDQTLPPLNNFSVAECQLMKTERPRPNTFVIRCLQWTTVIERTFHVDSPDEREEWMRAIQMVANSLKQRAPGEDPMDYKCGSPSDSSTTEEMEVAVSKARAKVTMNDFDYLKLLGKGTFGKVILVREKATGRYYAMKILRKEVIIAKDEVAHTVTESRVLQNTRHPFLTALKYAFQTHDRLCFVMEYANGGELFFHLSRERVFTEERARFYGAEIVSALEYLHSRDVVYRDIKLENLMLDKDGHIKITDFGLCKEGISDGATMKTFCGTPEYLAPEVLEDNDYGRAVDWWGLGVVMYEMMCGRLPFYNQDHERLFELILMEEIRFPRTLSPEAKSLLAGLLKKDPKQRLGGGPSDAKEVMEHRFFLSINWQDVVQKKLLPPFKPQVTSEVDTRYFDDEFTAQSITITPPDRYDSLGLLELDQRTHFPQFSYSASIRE
# T20 sequence (P35968 20-1356): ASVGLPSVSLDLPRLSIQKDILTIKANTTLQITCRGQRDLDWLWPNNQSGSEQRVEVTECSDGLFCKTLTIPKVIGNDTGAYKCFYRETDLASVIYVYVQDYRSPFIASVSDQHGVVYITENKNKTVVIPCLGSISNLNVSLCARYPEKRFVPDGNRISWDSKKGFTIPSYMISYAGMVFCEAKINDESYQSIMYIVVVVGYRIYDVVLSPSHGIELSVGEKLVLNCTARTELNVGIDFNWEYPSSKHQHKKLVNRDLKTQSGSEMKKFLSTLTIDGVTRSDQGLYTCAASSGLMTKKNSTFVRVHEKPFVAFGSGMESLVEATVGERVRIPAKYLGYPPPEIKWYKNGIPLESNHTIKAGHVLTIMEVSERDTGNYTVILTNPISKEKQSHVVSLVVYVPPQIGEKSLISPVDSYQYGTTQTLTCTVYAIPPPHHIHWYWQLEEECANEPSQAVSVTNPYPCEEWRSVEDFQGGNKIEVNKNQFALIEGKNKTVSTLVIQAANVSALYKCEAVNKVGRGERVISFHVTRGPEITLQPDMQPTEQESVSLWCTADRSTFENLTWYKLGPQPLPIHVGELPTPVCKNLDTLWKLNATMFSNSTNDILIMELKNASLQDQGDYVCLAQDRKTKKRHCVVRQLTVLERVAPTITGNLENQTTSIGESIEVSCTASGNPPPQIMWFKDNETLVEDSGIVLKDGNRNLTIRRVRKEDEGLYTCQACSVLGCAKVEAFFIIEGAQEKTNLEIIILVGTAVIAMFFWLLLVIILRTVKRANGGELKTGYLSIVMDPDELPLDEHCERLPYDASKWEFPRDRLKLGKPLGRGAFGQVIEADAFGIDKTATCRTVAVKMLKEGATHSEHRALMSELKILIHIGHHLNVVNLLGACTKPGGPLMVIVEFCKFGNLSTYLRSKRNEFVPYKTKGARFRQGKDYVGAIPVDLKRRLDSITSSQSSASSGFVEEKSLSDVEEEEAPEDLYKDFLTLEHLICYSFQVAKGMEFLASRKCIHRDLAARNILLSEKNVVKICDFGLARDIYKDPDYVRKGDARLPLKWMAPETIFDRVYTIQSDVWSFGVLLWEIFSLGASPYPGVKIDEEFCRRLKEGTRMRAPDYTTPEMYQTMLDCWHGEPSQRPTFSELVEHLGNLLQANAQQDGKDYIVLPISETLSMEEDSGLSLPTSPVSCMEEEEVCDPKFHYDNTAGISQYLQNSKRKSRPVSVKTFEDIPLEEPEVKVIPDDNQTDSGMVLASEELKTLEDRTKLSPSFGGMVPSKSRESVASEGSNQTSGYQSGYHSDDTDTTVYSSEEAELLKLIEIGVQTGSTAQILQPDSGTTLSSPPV
# T15 sequence (P07948 whole entry): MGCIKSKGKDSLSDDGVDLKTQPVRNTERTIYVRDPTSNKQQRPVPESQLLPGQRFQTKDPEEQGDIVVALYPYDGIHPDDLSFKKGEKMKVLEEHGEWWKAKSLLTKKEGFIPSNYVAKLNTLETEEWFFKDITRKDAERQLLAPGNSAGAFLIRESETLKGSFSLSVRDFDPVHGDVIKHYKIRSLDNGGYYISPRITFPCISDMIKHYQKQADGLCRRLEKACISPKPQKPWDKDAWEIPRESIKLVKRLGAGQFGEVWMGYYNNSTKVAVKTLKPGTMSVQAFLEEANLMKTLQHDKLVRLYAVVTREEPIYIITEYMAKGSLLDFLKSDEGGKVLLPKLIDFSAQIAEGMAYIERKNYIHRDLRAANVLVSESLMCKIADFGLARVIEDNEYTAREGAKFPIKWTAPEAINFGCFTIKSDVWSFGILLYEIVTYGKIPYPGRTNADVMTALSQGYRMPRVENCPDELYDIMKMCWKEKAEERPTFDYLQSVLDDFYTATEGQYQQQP
# T34 sequence (P49760 whole entry): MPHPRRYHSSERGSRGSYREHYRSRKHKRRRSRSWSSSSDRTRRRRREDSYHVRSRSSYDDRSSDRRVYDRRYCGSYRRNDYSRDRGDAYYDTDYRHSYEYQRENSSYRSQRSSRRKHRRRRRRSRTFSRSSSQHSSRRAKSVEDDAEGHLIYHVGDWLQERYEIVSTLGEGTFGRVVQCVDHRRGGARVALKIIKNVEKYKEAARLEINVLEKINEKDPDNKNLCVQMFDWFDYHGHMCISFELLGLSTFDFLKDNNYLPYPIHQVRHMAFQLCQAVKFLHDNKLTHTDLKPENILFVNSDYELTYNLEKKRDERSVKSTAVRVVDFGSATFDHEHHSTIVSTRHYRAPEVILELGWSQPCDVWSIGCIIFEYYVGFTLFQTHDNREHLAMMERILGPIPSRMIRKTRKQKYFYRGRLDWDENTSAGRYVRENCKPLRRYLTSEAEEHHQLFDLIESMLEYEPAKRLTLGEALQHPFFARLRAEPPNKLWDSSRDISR
# T27 sequence (O96013 whole entry): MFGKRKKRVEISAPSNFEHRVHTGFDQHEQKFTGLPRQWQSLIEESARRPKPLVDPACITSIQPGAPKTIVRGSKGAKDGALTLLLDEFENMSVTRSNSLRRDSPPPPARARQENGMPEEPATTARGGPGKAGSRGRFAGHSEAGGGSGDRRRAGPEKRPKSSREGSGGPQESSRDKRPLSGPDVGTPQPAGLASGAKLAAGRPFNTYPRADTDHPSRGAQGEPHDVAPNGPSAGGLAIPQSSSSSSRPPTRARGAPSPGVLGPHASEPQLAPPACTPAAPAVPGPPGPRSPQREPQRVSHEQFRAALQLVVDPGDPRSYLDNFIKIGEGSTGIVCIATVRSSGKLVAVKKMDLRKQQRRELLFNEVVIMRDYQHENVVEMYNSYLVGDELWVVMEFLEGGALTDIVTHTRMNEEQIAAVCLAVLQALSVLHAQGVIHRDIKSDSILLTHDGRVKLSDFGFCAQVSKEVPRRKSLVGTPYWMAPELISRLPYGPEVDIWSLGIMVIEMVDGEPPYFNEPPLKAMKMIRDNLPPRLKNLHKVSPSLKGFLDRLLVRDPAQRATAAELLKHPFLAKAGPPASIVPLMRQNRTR
# T4 sequence (P42680 whole entry): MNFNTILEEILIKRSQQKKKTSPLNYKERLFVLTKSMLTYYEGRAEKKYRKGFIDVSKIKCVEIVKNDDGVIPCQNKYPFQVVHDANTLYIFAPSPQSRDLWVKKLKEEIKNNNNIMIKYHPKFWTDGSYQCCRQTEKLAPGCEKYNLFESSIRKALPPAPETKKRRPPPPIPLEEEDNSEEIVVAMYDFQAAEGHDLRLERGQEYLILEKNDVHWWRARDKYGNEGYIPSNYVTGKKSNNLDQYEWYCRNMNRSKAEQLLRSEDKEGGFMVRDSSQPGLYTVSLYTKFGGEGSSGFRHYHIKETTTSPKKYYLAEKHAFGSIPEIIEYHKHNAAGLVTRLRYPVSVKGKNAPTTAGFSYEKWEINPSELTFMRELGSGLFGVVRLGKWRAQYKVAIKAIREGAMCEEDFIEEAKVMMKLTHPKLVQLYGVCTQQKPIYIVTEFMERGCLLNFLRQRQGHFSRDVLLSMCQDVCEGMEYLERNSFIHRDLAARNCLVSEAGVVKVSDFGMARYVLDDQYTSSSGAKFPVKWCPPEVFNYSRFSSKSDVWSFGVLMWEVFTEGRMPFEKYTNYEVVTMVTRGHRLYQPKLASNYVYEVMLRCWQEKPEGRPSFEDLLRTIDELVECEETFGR
compound,measurement,setting,value
"COCc1ccc(C2CCC2)c(CNC(=O)Nc2c(C)c(-c3cnc(C)nc3)nn2-c2ccccc2)c1 [Example 10, 1-(2-cyclobutyl-5-(methoxymethyl)benzyl)-3-(4-methyl-3-(2-methylpyrimidin-5-yl)-1-phenyl-1H-pyrazol-5-yl)urea]",Avg POC TLK2,TLK2,97.5 POC
same,Avg POC DCAMKL2,DCAMKL2,96.5 POC
same,Avg POC Plk1,Plk1,84 POC
same,Avg POC TEC Activated,TEC Activated,88.5 POC
same,Avg POC Ret,Ret,89.5 POC
same,Avg POC TAO2,TAO2,97.5 POC
same,Avg POC FGFR4,FGFR4,118 POC
same,Avg POC AKT2,AKT2,142 POC
same,Avg POC Axl,Axl,104.5 POC
same,Avg POC EphA7,EphA7,92.5 POC
same,Avg POC EphB3,EphB3,100 POC
same,Avg POC PKCgamma,PKCgamma,101 POC
same,Avg POC CK2alpha2,CK2alpha2,109 POC
same,Avg POC MARK2,MARK2,98.5 POC
same,Avg POC Lyn,Lyn,86 POC
same,Avg POC PTK6,PTK6,106.5 POC
same,Avg POC Fes,Fes,90 POC
same,Avg POC PKCdelta,PKCdelta,91.5 POC
same,Avg POC ITK,ITK,112 POC
same,Avg POC KDR,KDR,97.5 POC
same,Avg POC MAPKAP-K5,MAPKAP-K5,92 POC
same,Avg POC eEF-2K,eEF-2K,109.5 POC
same,Avg POC AURKA,AURKA,90 POC
same,Avg POC MKK6,MKK6,131.5 POC
same,Avg POC CAMK2g,CAMK2g,101 POC
same,Avg POC CLK3,CLK3,104.5 POC
same,Avg POC PAK4,PAK4,102.5 POC
same,Avg POC PKCiota,PKCiota,65.5 POC
same,Avg POC Rse,Rse,103 POC
same,Avg POC ROCK-I,ROCK-I,114 POC
same,Avg POC MKK4_m,MKK4_m,125.5 POC
same,Avg POC WNK2,WNK2,109 POC
same,Avg POC DAPK2,DAPK2,105 POC
same,Avg POC CLK2,CLK2,97.5 POC
same,Avg POC KIT,KIT,102 POC
same,Avg POC EphA1,EphA1,98 POC
same,Avg POC AMPK(A1/B1/G1),AMPK(A1/B1/G1),111.5 POC
same,Avg POC CHK2,CHK2,93 POC
same,Avg POC MST1,MST1,87.5 POC
same,Avg POC Fms,Fms,83.5 POC
same,Avg POC TrkB,TrkB,0.5 POC
"COCc1ccc(C(F)(F)F)c(CNC(=O)Nc2c(C)c(-c3cnn(C)c3)nn2-c2ccccc2)c1 [Example 33, 1-(1′,4-dimethyl-1-phenyl-1H,1′H-[3,4′-bipyrazol]-5-yl)-3-(5-(methoxymethyl)-2-(trifluoromethyl)benzyl)urea]",Avg POC TLK2,TLK2,109 POC
same,Avg POC DCAMKL2,DCAMKL2,254.5 POC
same,Avg POC Plk1,Plk1,93 POC
same,Avg POC TEC Activated,TEC Activated,138.5 POC
same,Avg POC Ret,Ret,91 POC
same,Avg POC TAO2,TAO2,92.5 POC
same,Avg POC FGFR4,FGFR4,201.5 POC
same,Avg POC AKT2,AKT2,199 POC
same,Avg POC Axl,Axl,117 POC
same,Avg POC EphA7,EphA7,94.5 POC
same,Avg POC EphB3,EphB3,69 POC
same,Avg POC PKCgamma,PKCgamma,98 POC
same,Avg POC CK2alpha2,CK2alpha2,99.5 POC
same,Avg POC MARK2,MARK2,103.5 POC
same,Avg POC Lyn,Lyn,104.5 POC
same,Avg POC PTK6,PTK6,118.5 POC
same,Avg POC Fes,Fes,109 POC
same,Avg POC PKCdelta,PKCdelta,93 POC
same,Avg POC ITK,ITK,124 POC
same,Avg POC KDR,KDR,139.5 POC
same,Avg POC MAPKAP-K5,MAPKAP-K5,97.5 POC
same,Avg POC eEF-2K,eEF-2K,169.5 POC
same,Avg POC AURKA,AURKA,112 POC
same,Avg POC MKK6,MKK6,143 POC
same,Avg POC CAMK2g,CAMK2g,112 POC
same,Avg POC CLK3,CLK3,102 POC
same,Avg POC PAK4,PAK4,108.5 POC
same,Avg POC PKCiota,PKCiota,64 POC
same,Avg POC Rse,Rse,110 POC
same,Avg POC ROCK-I,ROCK-I,120.5 POC
same,Avg POC MKK4_m,MKK4_m,137 POC
same,Avg POC WNK2,WNK2,140.5 POC
same,Avg POC DAPK2,DAPK2,109.5 POC
same,Avg POC CLK2,CLK2,131.5 POC
same,Avg POC KIT,KIT,94 POC
same,Avg POC EphA1,EphA1,90 POC
same,Avg POC AMPK(A1/B1/G1),AMPK(A1/B1/G1),147.5 POC
same,Avg POC CHK2,CHK2,138 POC
same,Avg POC MST1,MST1,87.5 POC
same,Avg POC Fms,Fms,88.5 POC
same,Avg POC TrkB,TrkB,0 POC
